Experimental data as given in US9382254B2, “Compounds and pharmaceutical compositions thereof for the treatment of cystic fibrosis” (Galapagos NV, priority 2013, dated 2016).
pEC50: −log10 of the molar value. Where two headings read alike, the source gives them in different places.

Assays:
Format in all cases: cell-based
CFTR-G1349D = molecular target: T1, CFTR-G1349D (Homo sapiens, UniProt P13569, G1349D); experiment: YFP-halide influx assay for the CFTR-G1349D
T1 construct: expressed in transfected cells
Source text: (§1) The YFP halide influx assay measures the functionality of the cystic fibrosis Transmembrane Conductance regulator (CFTR) channels. The assay is used to evaluate the capacity of compounds to increase the channel opening of existing mutant CFTR channels in the membrane. It makes use of the observation that the yellow fluorescent protein (YFP) variant YFP H148Q, I152L, […] has its fluorescence substantially quenched by halide ions like Cl^− and I^−. (Galietta, Haggie, & Verkman, 2001)
(§2) For this purpose, HEK293-cells are seeded in 96 well plates. During seeding, the cells are reverse-transfected with plasmid vectors that direct the expression of the CFTR G551D mutant and of the YFP reporter. Cells are incubated at 37° C., 5% CO2 for 24 hours so as to allow for sufficient expression of the CFTR protein.
(§3) The I^−-induced quenching of fluorescence is recorded immediately after injection of I^− for 7 seconds. The capacity of a compound to increase the channel opening is directly correlated with the decrease in fluorescence, and is expressed as (1-(fluorescence after 7 seconds (F)/fluorescence before injection (F0))) and an EC50 can be derived from a (1-F/F0) vs compound concentration plot.
(§4) Similar YHA assays were developed for other channel gating defective or channel conductance defective CFTR mutants to determine effect of compound on channel activity. Examples of mutants are G178R, G1349D, S549N, R117H, R334W. This assay is also used for additional class I CFTR mutants, including G542X, W1282X; class II mutants including N1303K, and for class III mutants including S1251N.

CFTR G551D mutant = molecular target: T2, CFTR G551D mutant (Homo sapiens, UniProt P13569, G551D); experiment: YFP-halide influx assay for the CFTR-G551D mutation; details: HEK293 cells, forskolin 10.67 μM
T2 construct: expressed in transfected cells; host or cells: HEK293 (reverse transfection with plasmid)
In short: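 Channel opening potentiation measured as 1−F/F0, where F is YFP fluorescence 7 s after iodide injection and F0 before; EC50 taken from concentration plot. Cells: HEK293 transiently expressing CFTR G551D plus halide-sensitive YFP (H148Q, I152L, F47L), 24 h at 37 °C, 5% CO2.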

CFTR-S549N = molecular target: T3, CFTR-S549N (Homo sapiens, UniProt P13569, S549N); experiment: YFP-halide influx assay for the CFTR-S549N
T3 construct: expressed in transfected cells
Source text: as §1, §2, §3, §4

CFTR ΔF508 mutant = molecular target: T4, CFTR ΔF508 mutant (Homo sapiens, UniProt P13569, DEL508-508); experiment: YFP-halide influx assay for the CFTR-ΔF508 mutation (384 well, FDSS/μCell); details: CFBE41o- cells, CFTR-ΔF508, 1×D-PBS, fluorescence after 36 seconds
T4 construct: expressed in transfected cells; host or cells: CFBE41o- (adenoviral transduction)
In short: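 Potentiator read-out as 1−F/F0, F taken 36 s after iodide addition, EC50 fitted against compound concentration. Cells: CFBE41o- expressing ΔF508 CFTR plus halide-sensitive YFP via adenovirus, rescued by 27 °C for 24 h or 24 h modulator at 37 °C.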

CFTR-G178R = molecular target: T5, CFTR-G178R (Homo sapiens, UniProt P13569, G178R); experiment: YFP-halide influx assay for the CFTR-G178R
T5 construct: expressed in transfected cells
Source text: as §1, §2, §3, §4

CFTR-R117H = molecular target: T6, CFTR-R117H (Homo sapiens, UniProt P13569, R117H); experiment: YFP-halide influx assay for the CFTR-R117H
T6 construct: expressed in transfected cells
Source text: as §1, §2, §3, §4

T5 sequence (P13569 whole entry G178R): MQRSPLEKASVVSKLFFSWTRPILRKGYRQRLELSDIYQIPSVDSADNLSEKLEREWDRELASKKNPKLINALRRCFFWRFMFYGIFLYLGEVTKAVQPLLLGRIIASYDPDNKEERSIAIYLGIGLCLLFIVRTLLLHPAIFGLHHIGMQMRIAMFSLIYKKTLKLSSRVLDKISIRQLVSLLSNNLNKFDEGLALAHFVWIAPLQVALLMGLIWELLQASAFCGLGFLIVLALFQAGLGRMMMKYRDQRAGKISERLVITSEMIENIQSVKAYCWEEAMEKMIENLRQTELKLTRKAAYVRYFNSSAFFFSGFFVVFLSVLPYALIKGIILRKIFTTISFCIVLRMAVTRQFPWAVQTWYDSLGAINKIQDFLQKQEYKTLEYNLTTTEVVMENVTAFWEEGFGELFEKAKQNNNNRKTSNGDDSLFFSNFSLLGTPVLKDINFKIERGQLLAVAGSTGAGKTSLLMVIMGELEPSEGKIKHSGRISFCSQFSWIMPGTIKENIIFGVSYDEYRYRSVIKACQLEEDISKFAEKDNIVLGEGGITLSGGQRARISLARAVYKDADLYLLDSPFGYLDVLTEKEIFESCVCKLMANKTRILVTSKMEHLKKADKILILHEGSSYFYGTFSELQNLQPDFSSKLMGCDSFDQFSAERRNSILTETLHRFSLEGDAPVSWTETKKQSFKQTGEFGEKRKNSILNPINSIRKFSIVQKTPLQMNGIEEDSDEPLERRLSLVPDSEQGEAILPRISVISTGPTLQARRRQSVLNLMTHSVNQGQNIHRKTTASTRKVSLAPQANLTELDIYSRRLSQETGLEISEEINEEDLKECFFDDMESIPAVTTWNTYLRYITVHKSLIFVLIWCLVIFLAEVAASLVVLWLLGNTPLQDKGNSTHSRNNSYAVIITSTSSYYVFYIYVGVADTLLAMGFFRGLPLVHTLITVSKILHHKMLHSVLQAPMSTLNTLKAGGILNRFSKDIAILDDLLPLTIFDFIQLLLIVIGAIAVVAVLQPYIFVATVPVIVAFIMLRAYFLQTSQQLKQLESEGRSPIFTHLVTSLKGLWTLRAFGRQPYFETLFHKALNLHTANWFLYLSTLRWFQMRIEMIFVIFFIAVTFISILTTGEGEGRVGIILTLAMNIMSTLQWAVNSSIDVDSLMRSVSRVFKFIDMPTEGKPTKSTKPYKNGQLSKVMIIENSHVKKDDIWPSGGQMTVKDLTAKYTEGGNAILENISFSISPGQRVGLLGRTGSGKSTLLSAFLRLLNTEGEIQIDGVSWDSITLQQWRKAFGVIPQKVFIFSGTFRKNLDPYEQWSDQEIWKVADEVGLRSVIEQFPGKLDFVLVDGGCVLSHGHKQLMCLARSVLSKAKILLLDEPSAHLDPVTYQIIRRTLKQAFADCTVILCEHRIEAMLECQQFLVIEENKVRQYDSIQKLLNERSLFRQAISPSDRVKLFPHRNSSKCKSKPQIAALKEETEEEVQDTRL
T3 sequence (P13569 whole entry S549N): as the sequence (P13569 whole entry G178R) above, with R178G, S549N counted along it
T2 sequence (P13569 whole entry G551D): as the sequence (P13569 whole entry G178R) above, with R178G, G551D counted along it
T1 sequence (P13569 whole entry G1349D): as the sequence (P13569 whole entry G178R) above, with R178G, G1349D counted along it
T6 sequence (P13569 whole entry R117H): as the sequence (P13569 whole entry G178R) above, with R117H, R178G counted along it
T4 sequence (P13569 with tags, fused parts or gaps DEL508-508): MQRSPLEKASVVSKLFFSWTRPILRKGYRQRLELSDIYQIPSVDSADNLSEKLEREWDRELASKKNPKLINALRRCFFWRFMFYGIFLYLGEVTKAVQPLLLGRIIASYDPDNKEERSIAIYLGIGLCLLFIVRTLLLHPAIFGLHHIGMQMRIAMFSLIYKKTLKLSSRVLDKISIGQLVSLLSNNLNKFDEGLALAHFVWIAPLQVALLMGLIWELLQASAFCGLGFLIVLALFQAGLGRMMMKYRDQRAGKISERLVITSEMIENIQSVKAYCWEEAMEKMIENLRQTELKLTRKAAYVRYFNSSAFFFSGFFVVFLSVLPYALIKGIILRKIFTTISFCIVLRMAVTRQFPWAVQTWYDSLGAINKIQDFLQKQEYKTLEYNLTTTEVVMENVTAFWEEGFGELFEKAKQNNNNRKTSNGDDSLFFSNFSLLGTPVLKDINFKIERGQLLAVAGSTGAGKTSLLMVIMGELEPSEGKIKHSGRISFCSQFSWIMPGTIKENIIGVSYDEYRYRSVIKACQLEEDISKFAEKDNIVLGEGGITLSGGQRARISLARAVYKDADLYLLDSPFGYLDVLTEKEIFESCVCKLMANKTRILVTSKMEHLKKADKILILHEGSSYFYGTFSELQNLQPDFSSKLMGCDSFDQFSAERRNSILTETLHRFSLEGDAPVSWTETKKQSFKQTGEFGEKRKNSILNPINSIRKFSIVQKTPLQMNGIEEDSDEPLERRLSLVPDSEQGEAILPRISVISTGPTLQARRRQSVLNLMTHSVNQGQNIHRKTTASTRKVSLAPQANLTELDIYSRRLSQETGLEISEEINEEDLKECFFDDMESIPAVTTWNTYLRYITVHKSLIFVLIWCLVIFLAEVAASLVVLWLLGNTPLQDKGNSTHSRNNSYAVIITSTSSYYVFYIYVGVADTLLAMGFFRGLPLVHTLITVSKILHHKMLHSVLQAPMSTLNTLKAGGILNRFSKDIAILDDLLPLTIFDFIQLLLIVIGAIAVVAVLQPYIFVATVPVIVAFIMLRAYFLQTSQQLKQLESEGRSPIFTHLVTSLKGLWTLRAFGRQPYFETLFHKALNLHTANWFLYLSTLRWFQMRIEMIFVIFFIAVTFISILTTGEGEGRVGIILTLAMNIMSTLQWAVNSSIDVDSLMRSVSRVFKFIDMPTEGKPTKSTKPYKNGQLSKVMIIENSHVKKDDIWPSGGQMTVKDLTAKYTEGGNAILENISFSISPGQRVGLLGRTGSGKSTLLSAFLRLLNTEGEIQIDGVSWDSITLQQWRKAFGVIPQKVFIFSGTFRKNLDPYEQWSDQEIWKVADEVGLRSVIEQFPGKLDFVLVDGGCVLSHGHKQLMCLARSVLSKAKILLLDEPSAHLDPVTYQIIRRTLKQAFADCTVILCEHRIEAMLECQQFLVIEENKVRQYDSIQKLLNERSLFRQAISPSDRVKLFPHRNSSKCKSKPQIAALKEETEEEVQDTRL

Structure (SMILES)	pEC50 (CFTR-G1349D)	pEC50 (CFTR G551D mutant)	pEC50 (CFTR-S549N)	pEC50 (CFTR ΔF508 mutant)	pEC50 (CFTR-G178R)	pEC50 (CFTR-R117H)	pEC50 (CFTR G551D mutant; class symbol)	pEC50 (CFTR-S549N; class symbol)
CC(C)(O)C(=O)Nc1sc(S(=O)(=O)c2ccc(OC(F)F)cc2)cc1C(N)=O [Compound 380, 5-[4-(difluoromethoxy)phenyl] sulfonyl-2-[(2-hydroxy-2-methyl-propanoyl)amino] thiophene-3-carboxamide]	6.56	6.35	6.41	7.76	6.97	6.84	–	–
CC(CO)C(=O)Nc1sc(S(=O)(=O)c2ccc(Cl)cc2OC(F)(F)F)cc1C(N)=O (stereo not drawn) [Compound 387, 5-[4-chloro-2-(trifluoromethoxy)phenyl] sulfonyl-2-[(3-hydroxy-2-methyl-propanoyl)amino] thiophene-3-carboxamide]	7.08	5.85	6.68	7.65	7.06	7.31	–	–
CC(C)(O)C(=O)Nc1sc(S(=O)(=O)c2cc(Cl)ccc2OC(F)(F)F)cc1C(N)=O [Compound 391, 5-[5-chloro-2-(trifluoromethoxy)phenyl] sulfonyl-2-[(2-hydroxy-2-methyl-propanoyl)amino] thiophene-3-carboxamide]	7.59	7.27	7.38	7.83	7.89	7.47	–	–
CC(C)(O)C(=O)Nc1sc(S(=O)(=O)c2ccc(C#N)cc2OC(F)(F)F)cc1C(N)=O [Compound 393, 5-[4-cyano-2-(trifluoromethoxy)phenyl] sulfonyl-2-[(2-hydroxy-2-methyl-propanoyl)amino] thiophene-3-carboxamide]	6.80	6.18	6.59	7.83	7.25	7.32	–	–
CC(C)(O)C(=O)Nc1sc(S(=O)(=O)c2cc(Cl)ccc2OC(F)F)cc1C(N)=O [Compound 401, 5-[5-chloro-2-(difluoromethoxy)phenyl] sulfonyl-2-[(2-hydroxy-2-methyl-propanoyl)amino] thiophene-3-carboxamide]	7.31	6.90	7.04	8.19	6.98	7.06	–	–

Second part, the compound after the results:

pEC50 (CFTR-G1349D)	pEC50 (CFTR G551D mutant)	pEC50 (CFTR-S549N)	pEC50 (CFTR ΔF508 mutant)	pEC50 (CFTR-G178R)	pEC50 (CFTR-R117H)	pEC50 (CFTR G551D mutant; class symbol)	pEC50 (CFTR-S549N; class symbol)	Structure (SMILES)
6.69	6.09	6.27	7.33	7.04	6.61	–	–	CC(C)(O)C(=O)Nc1sc(S(=O)(=O)c2ccc(C(F)(F)F)nc2)cc1C(N)=O [Compound 389, 2-[(2-hydroxy-2-methyl-propanoyl)amino]-5-[[6-(trifluoromethyl)-3-pyridyl]sulfonyl] thiophene-3-carboxamide]
6.53	6.18	6.49	7.36	6.99	6.66	–	–	CC(C)(O)C(=O)Nc1sc(S(=O)(=O)c2cc(C(F)(F)F)ncc2Cl)cc1C(N)=O [Compound 390, 5-[[5-chloro-2-(trifluoromethyl)-4-pyridyl]sulfonyl]-2-[(2-hydroxy-2-methyl-propanoyl)amino] thiophene-3-carboxamide]
5.48	–	–	6.45	5.48	5.48	< 6.00	< 6.00	CC(C)(O)C(=O)Nc1sc(S(=O)(=O)c2cnc(C(F)(F)F)nc2)cc1C(N)=O [Compound 394, 2-[(2-hydroxy-2-methyl-propanoyl)amino]-5-[2-(trifluoromethyl)pyrimidin-5-yl]sulfonyl-thiophene-3-carboxamide]
6.38	5.75	6.17	7.51	6.38	6.59	–	–	CC(C)(O)C(=O)Nc1sc(S(=O)(=O)c2cnc(C(F)(F)F)cn2)cc1C(N)=O [Compound 397, 2-[(2-hydroxy-2-methyl-propanoyl)amino]-5-[5-(trifluoromethyl)pyrazin-2-yl]sulfonyl-thiophene-3-carboxamide]
